Source: US6492174B1, “Methods of initiating embryogenic cultures in plants” (Institute of Paper Science & Technology, priority 2000, dated 2002)

Key:
Format in all cases: cell-based
[1] = system: Norway spruce zygotic embryos; assay: Norway spruce initiation after ABA pre-treatment of seed or explant, ten weeks
Procedure: In this Example, various ABA pre-treatment methods are compared.
Explants were zygotic embryos flipped out of the megagametophyte, prepared as in Example 1. The experiment consisted of four replications, with a replication consisting of ten explants in a single petri dish. Explants were cultured on solid media lacking ABA.
The treatments were designed to investigate the effects of pre-treating the whole seed compared to treating the explant (i.e. the embryo and megagametophyte) after their removal from the seed. It is presumed that soaking a whole seed will result in less ABA uptake by the megagametophyte and embryo than soaking them directly in ABA due to their being surrounded by seed tissue. Two treatments also compared the effect of the pH of the ABA solution. In Treatment #1, the control, seeds were soaked in water for 24 hours, and then explants were prepared as in Example 1. In Treatment #2, seeds were soaked in 5 ppm ABA for 24 hours prior to explant removal. In Treatment #3, seeds were soaked in 20 ppm ABA for 24 hours prior to explant removal. In Treatment #4, seeds were soaked in water for 24 hours and then the explants were removed and soaked in a 5 ppm ABA solution of pH 4.5 for 30 minutes. In Treatment #5 seeds were soaked in water for 24 hours and then the explants were removed and soaked in a 5 ppm ABA solution of pH 5.5 for 30 minutes. After ten weeks, the explants were examined and the frequency of embryogenic culture initiation was scored (Table 44).

[2] = system: rice (Oryza sativa) cultivar Taipei 309 dehulled seeds; assay: Rice embryogenic callus diameter on MS media with 2.0 mg/l 2,4-D, two weeks; settings: for Callus Diameter (mm) + (std. error): two weeks
Source text: In this experiment, brassinolide and elevated atmospheric pressure improved the initiation of embryogenic cultures in rice (Oryza sativa). Rice, an annual angiosperm, is quite taxonomically distant from the conifers used in previous examples. However, as this example makes clear, brassinosteroids and elevated atmospheric pressure effectively increase embryogenic culture initiation of in a wide variety of species.
In this experiment, four initiation treatments were studied, using explants from mature Japaonica rice seeds (cultivar Taipei 309). The explants were dehulled sterilized seeds. About 400 mature seeds were dehulled and surface sterilized in a 5.25% bleach solution for 25 minutes and then rinsed three times with sterile deionized water. About 70 explants were placed into each of four treatment petri dishes containing solid media. The explants were placed with the embryo side up. The basal media was a Murashige and Skoog (MS) media containing 2.0 mg/l 2,4-D. Plates were wrapped in PARAFILM and cultured in the dark at 27° for two weeks.
Treatment 1, the control treatment, consisted of the above-described basal media, contained no brassinolide, and was cultured at atmospheric pressure. Treatment 2 contained the basal media and was cultured at 1.5 atm of pressure. Treatment 3 contained basal to which 0.1 μM brassinolide was added and was cultured at normal atmospheric pressure. Treatment 4 contained basal media to which 1 μM brassinolide was added and was cultured at atmospheric pressure.
After two weeks, embryogenic callus had developed on most of the explants. The embryogenic callus formed in spherical formations around the embryo. During culture, the scutellum elongated and the embryogenic calli formed masses around the base of the scutellum, covering and obscuring the rest of the embryo. Initiation was scored by measuring the diameter of the embrygenic callus on each explant. A larger callus contains more somatic embryos and thus has a greater potential to supply viable embryos for subsequent regeneration of whole plants. Callus size was measured by observing callus under a dissecting scope fitted with an ocular measurement device allowing accurate measurements to 0.1 mm.

[3] = system: Loblolly pine megagametophytes; assay: Loblolly pine extrusion and initiation immersed in liquid media #1071 with brassinolide, eight weeks
Procedure: In Examples 4 and 5, the effect of varying brassinolide concentration in a solid media was measured. This experiment was conducted to determine the optimal concentration of brassinolide in a liquid media. The explants in this experiment were megagametophytes isolated from the cones of four open-pollinated trees representing a multiplicity of genotypes. The seeds contained Stage 2-4 zygotic embryos. Seeds were sterilized as described in Example 1. Seed coats were split and the megagametophytes were isolated by removing integuments and nucellus. Isolated megagametophytes were wholly immersed in liquid media #1071 (Table 47) containing varying concentrations of brassinolide. The five treatments consisted of media containing zero, 0.05, 0.1, 0.15 and 0.2 μM brassinolide (Table 16). Two ml of each media was poured into wells on culture well plates. […]. The experiment consisted of four replications per treatment, per cone collection.
Nevertheless, overall extrusion frequency was increased in the brassinolide treatments as compared to the control (Table 17). Initiation frequency was increased by the addition of brassinolide from 0.05 to 0.2 μM (Table 18). […] Nevertheless, one of skill in the art could empirically determine the upper and lower effective concentration of brassinolide which is effective in promoting initiation in a liquid media.

## CC1=CC(=O)CC(C)(C)C1(O)/C=C/C(C)=C\C(=O)O (stereo not shown) [ABA, 5-(1-hydroxy-2,6,6,-trimethyl-4-oxo-2-cyclohexen-1-yl)-3-methyl-2,4-penta dienoic acid]
[1]; explant soaked in 5 ppm ABA (pH 4.5), 30 minutes
  % Initiating (std. error): 31.2 (12.2) %
[1]; explant soaked in 5 ppm ABA (pH 5.5), 30 minutes
  % Initiating (std. error): 22.0 (3.0) %
[1]; seed soaked in 5 ppm ABA, 24 hours
  % Initiating (std. error): 15.1 (6.6) %
[1]; seed soaked in 20 ppm ABA, 24 hours
  % Initiating (std. error): 24.0 (5.4) %

## CC(C)[C@H](C)[C@@H](O)[C@H](O)[C@@H](C)[C@H]1CC[C@H]2[C@@H]3COC(=O)[C@H]4C[C@H](O)[C@H](O)C[C@]4(C)[C@H]3CC[C@]12C [brassinolide]
[2]; 0.1 μM brassinolide
  average callus size vs control: significantly increased
[2]; 1.0 μM brassinolide
  average callus size vs control: did not increase callus size
[2]; +0.1 μM Brassinolide
  Callus Diameter (mm) + (std. error): 4.70 (0.13) mm
[2]; +1.0 μM Brassinolide
  Callus Diameter (mm) + (std. error): 4.19 (0.12) mm
[3]; brassinolide from 0.05 to 0.2 μM, liquid media
  Initiation frequency vs control: increased
[3]; genotype FN, 0.05 μM Br
  % of Megagametophytes Extruding: 32.5 (12.5) %
  % of Megagametophytes Initiating: 20.0 (10.8) %
[3]; genotype FN, 0.10 μM Br
  % of Megagametophytes Extruding: 15.0 (6.5) %
  % of Megagametophytes Initiating: 10.0 (4.1) %
[3]; genotype FN, 0.15 μM Br
  % of Megagametophytes Extruding: 40.0 (20.4) %
  % of Megagametophytes Initiating: 20.0 (12.2) %
[3]; genotype FN, 0.2 μM Br
  % of Megagametophytes Extruding: 50.0 (18.3) %
  % of Megagametophytes Initiating: 35.0 (15.0) %
[3]; genotype FO, 0.05 μM Br
  % of Megagametophytes Extruding: 0.0 (0) %
  % of Megagametophytes Initiating: 0 (0) %
[3]; genotype FO, 0.10 μM Br
  % of Megagametophytes Extruding: 0.0 (0) %
  % of Megagametophytes Initiating: 0 (0) %
[3]; genotype FO, 0.15 μM Br
  % of Megagametophytes Extruding: 0.0 (0) %
  % of Megagametophytes Initiating: 0 (0) %
[3]; genotype FO, 0.2 μM Br
  % of Megagametophytes Extruding: 0.0 (0) %
  % of Megagametophytes Initiating: 0 (0) %
[3]; genotype FX, 0.05 μM Br
  % of Megagametophytes Extruding: 17.5 (6.3) %
  % of Megagametophytes Initiating: 17.5 (6.3) %
[3]; genotype FX, 0.10 μM Br
  % of Megagametophytes Extruding: 27.5 (12.5) %
  % of Megagametophytes Initiating: 25.0 (10.4) %
[3]; genotype FX, 0.15 μM Br
  % of Megagametophytes Extruding: 15.0 (5.0) %
  % of Megagametophytes Initiating: 12.5 (4.8) %
[3]; genotype FX, 0.2 μM Br
  % of Megagametophytes Extruding: 17.5 (4.8) %
  % of Megagametophytes Initiating: 17.5 (4.8) %
[3]; genotype FZ, 0.05 μM Br
  % of Megagametophytes Extruding: 0.0 (0) %
  % of Megagametophytes Initiating: 0 (0) %
[3]; genotype FZ, 0.10 μM Br
  % of Megagametophytes Extruding: 2.5 (2.5) %
  % of Megagametophytes Initiating: 2.5 (2.5) %
[3]; genotype FZ, 0.15 μM Br
  % of Megagametophytes Extruding: 2.5 (2.5) %
  % of Megagametophytes Initiating: 2.5 (2.5) %
[3]; genotype FZ, 0.2 μM Br
  % of Megagametophytes Extruding: 0.0 (0) %
  % of Megagametophytes Initiating: 0 (0) %
[3]; total, 0.05 μM Br
  % of Megagametophytes Extruding: 12.5%
  % of Megagametophytes Initiating: 9.4%
[3]; total, 0.10 μM Br
  % of Megagametophytes Extruding: 11.3%
  % of Megagametophytes Initiating: 9.4%
[3]; total, 0.15 μM Br
  % of Megagametophytes Extruding: 14.4%
  % of Megagametophytes Initiating: 8.8%
[3]; total, 0.2 μM Br
  % of Megagametophytes Extruding: 16.9%
  % of Megagametophytes Initiating: 13.1%
